Experimental data as given in PubChem BioAssay (NCI).
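All cell lines were grown in 96-well plates and treated with compound for 48 hours. Definition used: TGI = concentration required for complete inhibition of growth.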

How the values were obtained:
Assay in all cases: NCI-60 cell line screen, 48 h
786-0 renal = test system: 786-0 renal
A549 NSCLC = test system: A549 NSCLC
ACHN renal = test system: ACHN renal
BT-549 breast = test system: BT-549 breast
CAKI-1 renal = test system: CAKI-1 renal
CCRF-CEM leukemia = test system: CCRF-CEM leukemia
COLO 205 colon = test system: COLO 205 colon
DU-145 prostate = test system: DU-145 prostate
EKVX NSCLC = test system: EKVX NSCLC
HCC-2998 colon = test system: HCC-2998 colon
HCT-116 colon = test system: HCT-116 colon
HCT-15 colon = test system: HCT-15 colon
HL-60(TB) leukemia = test system: HL-60(TB) leukemia
HOP-62 NSCLC = test system: HOP-62 NSCLC
HOP-92 NSCLC = test system: HOP-92 NSCLC
HS 578T breast = test system: HS 578T breast
HT29 colon = test system: HT29 colon
IGROV1 ovarian = test system: IGROV1 ovarian
K-562 leukemia = test system: K-562 leukemia
KM12 colon = test system: KM12 colon
LOX IMVI melanoma = test system: LOX IMVI melanoma
M14 melanoma = test system: M14 melanoma
MALME-3M melanoma = test system: MALME-3M melanoma
MCF7 breast = test system: MCF7 breast
MDA-MB-231 breast = test system: MDA-MB-231 breast
MDA-MB-435 = test system: MDA-MB-435
MOLT-4 leukemia = test system: MOLT-4 leukemia
NCI-H226 lung = test system: NCI-H226 lung
NCI-H23 lung = test system: NCI-H23 lung
NCI-H460 lung = test system: NCI-H460 lung
NCI-H522 lung = test system: NCI-H522 lung
NCI/ADR-RES ovarian = test system: NCI/ADR-RES ovarian
OVCAR-3 ovarian = test system: OVCAR-3 ovarian
OVCAR-4 ovarian = test system: OVCAR-4 ovarian
OVCAR-5 ovarian = test system: OVCAR-5 ovarian
OVCAR-8 ovarian = test system: OVCAR-8 ovarian
PC-3 prostate = test system: PC-3 prostate
RPMI-8226 leukemia = test system: RPMI-8226 leukemia
RXF 393 renal = test system: RXF 393 renal
SF-268 CNS = test system: SF-268 CNS
SF-295 CNS = test system: SF-295 CNS
SK-MEL-2 melanoma = test system: SK-MEL-2 melanoma
SK-MEL-5 melanoma = test system: SK-MEL-5 melanoma
SK-OV-3 ovarian = test system: SK-OV-3 ovarian
SN12C renal = test system: SN12C renal
SNB-19 CNS = test system: SNB-19 CNS
SNB-75 CNS = test system: SNB-75 CNS
SW-620 colon = test system: SW-620 colon
T-47D breast = test system: T-47D breast
TK-10 renal = test system: TK-10 renal
U251 CNS = test system: U251 CNS
UACC-257 melanoma = test system: UACC-257 melanoma
UACC-62 melanoma = test system: UACC-62 melanoma
UO-31 renal = test system: UO-31 renal
A498 renal = test system: A498 renal
SF-539 CNS = test system: SF-539 CNS
SK-MEL-28 melanoma = test system: SK-MEL-28 melanoma

SMILES: COC(=O)[C@H](Cc1ccccc1)NP(=O)(O)OCC1C=CC(n2cc(C)c(=O)[nH]c2=O)O1 (stereo not given in full)
- TGI (786-0 renal): > 100 µM
- TGI (A549 NSCLC): > 100 µM
- TGI (ACHN renal): 62.6 µM
- TGI (BT-549 breast): > 100 µM
- TGI (CAKI-1 renal): > 100 µM
- TGI (CCRF-CEM leukemia): > 100 µM
- TGI (COLO 205 colon): > 100 µM
- TGI (DU-145 prostate): > 100 µM
- TGI (EKVX NSCLC): > 100 µM
- TGI (HCC-2998 colon): > 100 µM
- TGI (HCT-116 colon): > 100 µM
- TGI (HCT-15 colon): > 100 µM
- TGI (HL-60(TB) leukemia): > 100 µM
- TGI (HOP-62 NSCLC): > 100 µM
- TGI (HOP-92 NSCLC): > 100 µM
- TGI (HS 578T breast): > 100 µM
- TGI (HT29 colon): > 100 µM
- TGI (IGROV1 ovarian): > 100 µM
- TGI (K-562 leukemia): > 100 µM
- TGI (KM12 colon): > 100 µM
- TGI (LOX IMVI melanoma): > 100 µM
- TGI (M14 melanoma): > 100 µM
- TGI (MALME-3M melanoma): > 100 µM
- TGI (MCF7 breast): > 100 µM
- TGI (MDA-MB-231 breast): > 100 µM
- TGI (MDA-MB-435): > 100 µM
- TGI (MOLT-4 leukemia): > 100 µM
- TGI (NCI-H226 lung): > 100 µM
- TGI (NCI-H23 lung): > 100 µM
- TGI (NCI-H460 lung): > 100 µM
- TGI (NCI-H522 lung): > 100 µM
- TGI (NCI/ADR-RES ovarian): > 100 µM
- TGI (OVCAR-3 ovarian): > 100 µM
- TGI (OVCAR-4 ovarian): > 100 µM
- TGI (OVCAR-5 ovarian): > 100 µM
- TGI (OVCAR-8 ovarian): > 100 µM
- TGI (PC-3 prostate): > 100 µM
- TGI (RPMI-8226 leukemia): > 100 µM
- TGI (RXF 393 renal): > 100 µM
- TGI (SF-268 CNS): > 100 µM
- TGI (SF-295 CNS): > 100 µM
- TGI (SK-MEL-2 melanoma): > 100 µM
- TGI (SK-MEL-5 melanoma): > 100 µM
- TGI (SK-OV-3 ovarian): > 100 µM
- TGI (SN12C renal): > 100 µM
- TGI (SNB-19 CNS): > 100 µM
- TGI (SNB-75 CNS): > 100 µM
- TGI (SW-620 colon): > 100 µM
- TGI (T-47D breast): > 100 µM
- TGI (TK-10 renal): > 100 µM
- TGI (U251 CNS): > 100 µM
- TGI (UACC-257 melanoma): > 100 µM
- TGI (UACC-62 melanoma): > 100 µM
- TGI (UO-31 renal): > 100 µM

SMILES: O=[N+]([O-])c1ccc2nc3ccccc3cc2c1
- TGI (786-0 renal): 14 µM
- TGI (A498 renal): 3.27 µM
- TGI (A549 NSCLC): 8.95 µM
- TGI (ACHN renal): 14.9 µM
- TGI (BT-549 breast): 21.7 µM
- TGI (CAKI-1 renal): 0.0944 µM
- TGI (COLO 205 colon): 14.9 µM
- TGI (DU-145 prostate): 8.12 µM
- TGI (EKVX NSCLC): 22.9 µM
- TGI (HCC-2998 colon): 3.12 µM
- TGI (HCT-116 colon): 10.5 µM
- TGI (HCT-15 colon): 10 µM
- TGI (HOP-62 NSCLC): 6.16 µM
- TGI (HOP-92 NSCLC): 18.2 µM
- TGI (HS 578T breast): 27.4 µM
- TGI (HT29 colon): 4.4 µM
- TGI (IGROV1 ovarian): 6.8 µM
- TGI (K-562 leukemia): 8.79 µM
- TGI (LOX IMVI melanoma): 6.91 µM
- TGI (M14 melanoma): 18.1 µM
- TGI (MALME-3M melanoma): 13.3 µM
- TGI (MCF7 breast): > 100 µM
- TGI (MDA-MB-231 breast): 8.64 µM
- TGI (MDA-MB-435): 3.76 µM
- TGI (NCI-H226 lung): 8.97 µM
- TGI (NCI-H23 lung): 6.22 µM
- TGI (NCI-H460 lung): > 100 µM
- TGI (NCI-H522 lung): 9.79 µM
- TGI (NCI/ADR-RES ovarian): 3.47 µM
- TGI (OVCAR-3 ovarian): 1.3 µM
- TGI (OVCAR-4 ovarian): 10.4 µM
- TGI (OVCAR-5 ovarian): 7.06 µM
- TGI (OVCAR-8 ovarian): 2.58 µM
- TGI (PC-3 prostate): 10.2 µM
- TGI (RXF 393 renal): > 100 µM
- TGI (SF-268 CNS): 83.4 µM
- TGI (SF-539 CNS): 6.82 µM
- TGI (SK-MEL-2 melanoma): 27.8 µM
- TGI (SK-MEL-28 melanoma): 10.7 µM
- TGI (SK-MEL-5 melanoma): 14.4 µM
- TGI (SK-OV-3 ovarian): 20.7 µM
- TGI (SN12C renal): 5.63 µM
- TGI (SNB-19 CNS): 12.9 µM
- TGI (SNB-75 CNS): 6.53 µM
- TGI (SW-620 colon): 14.3 µM
- TGI (T-47D breast): 15.4 µM
- TGI (TK-10 renal): 5.24 µM
- TGI (U251 CNS): 10.6 µM
- TGI (UACC-257 melanoma): 5.86 µM
- TGI (UACC-62 melanoma): 6.27 µM
- TGI (UO-31 renal): 16.7 µM
